Experimental data taken from patent publication US12109214B2, “Formulation and treatment methods” (PRODRUGXTEND PTY LTD, priority 2015, dated 2024).

How the values were obtained:
[1] = tested on: Winnie mice (spontaneous colitis); test: Spontaneous colitis in Winnie mice, daily gavage up to 14 days; type: in vivo
From the text: (§1) The vehicle control was water.
Both the colitis and its improvement with treatment [FIGS. 2A and 2(B)] were more marked in the distal colon (DC) of the Winnie mice.

[2] = tested on: Winnie mice (spontaneous colitis); test: Spontaneous colitis in Winnie mice, low dose gavage 28 days; type: in vivo
From the text: as §1

[3] = tested on: C57B1/6 WT mice (chronic DSS induced colitis); test: Chronic DSS-induced colitis in C57Bl/6 WT mice; type: in vivo
Procedure: as §1
Dextran sodium sulphate (DSS) (36-50 kDa; MP Biochemicals) was administered in the drinking water chronically [0.5% (w/v) for 4 cycles of 5 days on, followed by either 7 or 9 days off].

RaW and Winnie mice = test: Colitis in Winnie and RaW (Rag-/- x Winnie) mice; type: in vivo
From the text: as §1
T and B lymphocytes are not required for the occurrence of spontaneous colitis in Winnie mice. Winnie x Rag^−/− (RaW) mice are Winnie mice that lack T and B lymphocytes. RaW mice spontaneously develop a colitis phenotype with more proximal disease than Winnie [Eri, R D et al; Mucosal. Immunol. 4, 354-364 (2011)].

[4] = tested on: Winnie mice (spontaneous colitis)
Procedure: All the animal experiments were approved by the University of Queensland Animal Ethics Committee. C57B1/6 wild-type (WT) mice were purchased from the Animal Resource Authority, Western Australia and the Hprt^−/−, Winnie and RaW were bred in-house in a pathogen free animal facility. […] 6-MP (MW 170, 6-MP monohydrate, ex Sigma-Aldrich) was dissolved in water. The vehicle control was water.
For DSS induced colitis in Hprt^−/− mice the composite disease activity index (DAI) score was used and this comprised diarrhoea, rectal bleeding and body weight percent loss subscores (0<1% loss; 1=1-5% loss; 2=5-15% loss; 3>15% loss).

[5] = tested on: Escherichia coli, Enterococcus faecalis and Bacteroides thetaiotamicron; test: Bacterial conversion to thioguanine nucleotides (6-TGN) in vitro; type: in vitro ADME; conditions: log phase cultures of all three strains, 1 mM, 120 minutes
Procedure: Bacterial metabolism of 6-TG was investigated in vitro using the representative gut bacteria Escherichia coli, Enterococcus faecalis and Bacteroides thetaiotamicron. […] In contrast, generation of 6-TGN was minimal over this time period when cultures were incubated with 1 mM 6-MP.

[6] = tested on: HeLa cells expressing LC3-GFP infected with SL1344; test: Antibacterial autophagy assay; type: cell-based; conditions: 6-TG 50 μM
Procedure: Briefly HeLa cells were plated in 12-well plates containing 18 mm glass coverslips at a density of 1×10^5 cells per well in DMEM 24 hours before infections. Cells were treated with TG or mock treated with DMSO for 16 hours prior to infection. S. enterica serovar Typhimurium SL1344 carrying a DsRed2 expression plasmid was grown overnight in Luria-Bertani broth containing 100 μg/mL carbenicillin at 37° C. with aeration and subcultured at a dilution of 1/33 for a further 3 h in Luria-Bertani carbenicillin broth. This culture was further diluted in DMEM 10% serum without antibiotics to yield a multiplicity of infection (MOI) of 100 and added to HeLa LC3-GFP cells. Infections were allowed to proceed for 20 minutes and the cells were washed once in complete medium containing 100 μg/mL gentamicin sulfate and then incubated in fresh high gentamicin medium for an additional 40 minutes. […] Slides were viewed for counting under wide-field fluorescence illumination with a 60× lens (Olympus). The fraction of LC3-GFP-positive bacteria per cell was assessed in randomly chosen fields with at least 90 cells counted for each condition. Bacteria were scored as within autophagosomes only when a complete and closely conforming LC3-GFP “capsule” was visible.

[7] = tested on: Salmonella typhimurium (SL1344) in HeLa cells; test: Bacterial replication assay
[8] = tested on: Hprt−/− mice (DSS induced colitis); test: Chronic DSS induced colitis in Hprt-/- mice
DSS induced colitis = test: 6-MP in DSS induced colitis over one month; type: in vivo, mice; conditions: large doses of 6-MP
From the text: This discovery was particularly unexpected as these mice lack the ability to form TGNs (the active metabolites) through the conventional metabolic route in the liver and leukocytes. However, formation of the active metabolite was discovered outside the generally understood mechanism. The magnitude of the reduction in disease activity was similar to that found in wild-type mice in which colitis had been induced with DSS. […] Conversion of the related thiopurine, 6-MP, to 6-TGTP was considerably less over the same period consistent with rate-limiting IMPDH in the purine salvage pathway of bacteria.

[9] = tested on: primary fibroblasts isolated from WT and Hprt−/− mice; test: Autophagy (LC3-II/β-actin) in primary fibroblasts; type: cell-based
Procedure: HeLa, HCT116, HT29, HepG2 and RAW cells were obtained from ATCC and grown in DMEM supplemented with GlutaMAX (Life Technologies), 10% fetal calf serum and 20 μg/ml penicillin/streptomycin. HeLa cells stably expressing LC3-GFP have been described previously (Kabeya Y et al., The EMBO Journal, 2000, 19 (2), 5720-5728; Birmingham C L et al, J. Biol. Chem., 2006, 281 (16), […]). Primary fibroblasts isolated from WT and Hprt^−/− mice were generated from ear punch samples after dissociation with trypsin and cultured in DMEM supplemented with Glutamax and 20% fetal calf serum with antibiotics and passaged up to four times to ensure that they were axenic.
Following treatment cells were treated with TNN (Tris-HCl, NaCl, NP40) lysis buffer. […] Following transfer to PVDF membranes (Invitrogen), detection was performed using rabbit anti-LC3 primary (Sigma), mouse anti-Actin (Sigma) and appropriate fluorescent secondary antibodies (LI-COR Biosciences) and imaged on a LICOR fluorescent imaging system.

[10] = WT mice 0.5% DSS, 6-TG 0.5 mg/kg gavage 28 days
[11] = PC and DC of RaW mice and Winnie controls, 6-TG 2.5 mg/kg
[12] = RaW and Winnie mice, 6-TG 2.5 mg/kg up to 14 days

Nc1nc2nc[nH]c2c(=S)[nH]1 [Formulation 6-TG, 2-amino-6,7-dihydro-3H-purine-6-thione]
spontaneous colitis (histological colitis) ([1]; 6-TG 1-2.5 mg/kg daily gavage up to 14 days): ameliorated the spontaneous colitis in a dose-dependent manner
pharmacodynamic effect (time to improved colonic histology) ([1]; oral and intra-rectal TG, 1 or 2.5 mg/kg/day): less than two weeks
blinded histological colitis scores PC and DC ([2]; 6-TG 0.5 mg/kg/d): improved blinded histological colitis scores in both PC and DC
combined diarrhoea (diarrhoea and rectal bleeding) score ([2]; 6-TG 0.5 mg/kg/d or 6-MP 2.5 mg/kg/d): improved with 6-TG
peripheral blood leukocytes ([2]; 6-TG 0.5 mg/kg/d or 6-MP 2.5 mg/kg/d, P=0.09): tended to reduce peripheral blood leukocytes
DSS colitis, total colitis scores, immune and epithelial damage subscores [3, 10]: improved with 6-TG
colon weight [3, 10]: significantly improved
combined diarrhoea score [3, 10]: significantly improved
peripheral white blood cells ([3]; WT mice DSS-treated and untreated, 6-TG 0.5 mg/kg gavage 28 days): decreased peripheral white blood cells
body weight gain ([3]; juvenile C57B1/6 WT mice, irrespective of DSS, 6-TG 0.5 mg/kg): reduction of expected body weight gain
Muc2 expression (RaW and Winnie mice; [11]): increased Muc2 expression
inflammation (Ifn-γ, Il-1b) (RaW and Winnie mice; [11]): decreased inflammation
blinded histological PC and DC colitis scores (RaW and Winnie mice; [12]): improved blinded histological PC and DC colitis scores
goblet cell morphology (RaW and Winnie mice; [12]): restored goblet cell morphology
colitis in mid-colon or proximal colon ([4]; intra-rectal 1 mg/kg daily 14 days): no improvement
blinded histological scoring of the distal colon ([4]; intra-rectal 1 mg/kg daily 14 days, P<0.01): striking improvement
combined diarrhea score ([4]; intra-rectal 1 mg/kg daily, from day 11, vs 6-MP and vehicle): statistically significant improvement
6-TGN (6-TGMP, 6-TGDP and 6-TGTP) generation in bacterial pellets [5]: found in the bacterial pellets
LC3 co-localization with intracellular bacteria [6]: significantly increased LC3 co-localization
intracellular replication of the bacteria (luminescence) ([7]; HeLa cells, 50 or 100 μM 6-TG, 12 h post infection): significantly decreased intracellular replication
bacterial growth (OD 600 absorbance) ([7]; over the 12 h period): did not alter bacterial growth
disease activity ([8]; Hprt−/− mice, 0.5% DSS, 6-TG 0.5 mg/kg oral gavage day 28 to 52): rapid and appreciable reduction in disease activity
immunosuppression ([8]; Hprt−/− mice, 6-TG 0.5 mg/kg oral gavage): not associated with immunosuppression
MLN cell counts ([8]; Hprt−/− mice, DSS, 6-TG 0.5 mg/kg): not depressed by 6-TG
CD3e+CD4+, CD11b+ and CD11c+MHCII+ subset numbers in the MLN ([8]; untreated or DSS exposed Hprt−/− mice, 6-TG 0.5 mg/kg): not decreased

Sc1ncnc2nc[nH]c12 [Formulation 6-MP, 3,7-dihydropurine-6-thione]
6-TGN (6-TGMP, 6-TGDP and 6-TGTP) generation in bacterial pellets [5]: minimal
colitis (DSS induced colitis): no reduction in colitis

CCC(=O)N1CCN(c2ccc(-n3c(=O)ccc4cnc5ccc(-c6cnc7ccccc7c6)cc5c43)cc2C(F)(F)F)CC1 [Torin1]
autophagy induction [9]: autophagy could be induced
